Measured values taken from PubChem BioAssay AID1361 (SRMLSC, 2008).
Active and inactive are the calls of the source. No rule for the calls is given here.

Test: mitochondrial fusion inhibitors, confirmation, cell-based, chemical genetic, wild-type and mutant (AID 1361)
Conditions: Cell-based mitochondrial fusion phenotype, imaging
[1] = mutant cells, measured here: mutant cell line IC50

Compound | IC50 (WT cells) | IC50 [1]
O=C(N1CCOCC1)N1CCN(C(c2ccccc2)c2ccccc2)CC1 | > 25 µM (inactive) | > 25 µM
CCn1ccnc1CN1CCc2c([nH]c3ccccc23)C1C1CCCCC1 (configuration not stated) | 17.6 µM | > 25 µM
CC(C)N(C(=S)NC1CC2CCC1C2)c1ccccc1 (configuration not stated) | 25 µM (inactive) | > 25 µM
Cc1ccc(-c2nc3cc(Br)cnc3nc2-c2ccc(C)cc2)cc1 | 9.24 µM | > 25 µM
COc1ccc(-c2nsc3c(N4CCCCC4C)ncnc23)cc1 (configuration not stated) | 18.9 µM | > 25 µM
COc1ccc2nc(NC(=O)c3cccc(OCc4c(C)noc4C)c3)sc2c1 | > 25 µM (inactive) | > 25 µM
CC1CN(c2ncnc3c2c(-c2ccccc2)cn3-c2ccc(F)cc2)CC(C)O1 (configuration not stated) | 21.4 µM | > 25 µM
CCN(CC)c1ccc(NC(=O)Nc2ccccc2C(F)(F)F)cc1 | > 25 µM (inactive) | > 25 µM
Cc1ccccc1NS(=O)(=O)c1cc(C(=O)N2CCc3ccccc3C2)ccc1C | > 25 µM (inactive) | > 25 µM
Cc1cccc(N2CCN(C(c3cccs3)c3nnnn3C(C)(C)C)CC2)c1C (configuration not stated) | 10.9 µM | > 25 µM
N#CC(c1ccc(Cl)cc1)(c1ncc(C(F)(F)F)cc1Cl)N1CCOCC1 (configuration not stated) | > 25 µM (inactive) | > 25 µM
CC1CCN(S(=O)(=O)c2ccc(Oc3ccc([N+](=O)[O-])cc3)cc2)CC1 | > 25 µM (inactive) | > 25 µM
CCOC(=O)C1=C(C)NC(=S)NC1c1ccc(-c2ccc(Cl)cc2)o1 (configuration not stated) | 10.4 µM | 24.2 µM
CC(NC(c1ccccc1)c1ccccc1)C(=O)N1CCCc2ccccc21 (configuration not stated) | 19.9 µM (inactive) | > 12.5 µM
CC1CC(C)CN(c2ncnc3c2cnn3Cc2ccc(Cl)cc2)C1 (configuration not stated) | 12.8 µM | 17.9 µM
CCCOc1ccc(Cc2c(Cl)nc(SC)nc2N(C)C)cc1 | 9.94 µM | > 25 µM
Cc1cc(C)nc(NC2=NCC(=O)N2c2ccc3c(c2)OCCO3)n1 | > 25 µM (inactive) | > 25 µM
CC(NC(=O)/C(=C/c1ccc(OC(F)F)cc1)c1ccccc1)c1ccccc1 (configuration not stated) | 11.5 µM | > 25 µM
Cc1cc(C)n(-c2nc(C)nc3c2cnn3-c2ccccc2)n1 | > 25 µM (inactive) | > 25 µM
CCOC(=O)c1[nH]c2ccc(OC)cc2c1NC(=O)C(C)N1CCC2(CC1)OCCO2 (configuration not stated) | > 25 µM (inactive) | > 25 µM
O=C(O)C1C2C=CC(C2)C1C(=O)Nc1ccc(C(=O)N2CCCCC2)cc1 (configuration not stated) | > 25 µM (inactive) | > 25 µM

Compound | IC50 (WT cells) | IC50 [1]
Oc1ccc2ccccc2c1/C=N/c1nc2c(s1)CCCC2 | > 25 µM (inactive) | > 25 µM
COC(=O)C1=C(O)/C(=C\c2ccc(CNC(=O)C(=O)Nc3ccc(C)cc3)o2)N=C1C | > 25 µM (inactive) | > 25 µM
Cc1coc(C)c1C(=O)CC1(O)C(=O)Nc2cc(Cl)cc(Cl)c21 (configuration not stated) | > 25 µM (inactive) | > 25 µM
CN(C)S(=O)(=O)c1cccc(C(=O)NCC2CCCO2)c1 (configuration not stated) | > 25 µM (inactive) | > 25 µM
CN1C=CC=C/C1=C1\SC(=S)N(c2ccccc2)C1=O | > 25 µM (inactive) | > 25 µM
O=C(CSCC(=O)N1CCCCC1)Nc1nc(-c2ccccc2)c(-c2ccccc2)s1 | 10.7 µM | > 25 µM
COc1ccc(C(=O)Nc2ccc(Cl)cc2C(=O)NCCN2CCOCC2)cc1 | > 25 µM (inactive) | > 25 µM
CN1/C(=C\C=Nc2ccc3ccccc3c2)C(C)(C)c2ccccc21 | > 25 µM (inactive) | 21.8 µM
CCCN(CCC)CCCNC(=O)CS(=O)Cc1nc(-c2ccc(OC)c(OC)c2)oc1C (configuration not stated) | > 25 µM (inactive) | > 25 µM
COCCN(C(=S)Nc1c(C)cc(C)cc1C)C(C)c1cccs1 (configuration not stated) | 23.3 µM | > 25 µM
COc1ccc(Cc2nn[nH]n2)cc1 | > 25 µM (inactive) | > 25 µM
Clc1ccc(C(c2nnnn2C2CCCCC2)N(Cc2cccnc2)Cc2ccco2)cc1 (configuration not stated) | 15.5 µM | > 25 µM
CC(C)(C)n1nnnc1C(c1cccs1)N(Cc1cccnc1)Cc1ccccc1Cl (configuration not stated) | 23.2 µM | > 25 µM
CCOC(=O)c1c(NC(=O)C2CCN(S(=O)(=O)c3cccs3)CC2)sc(C)c1C | > 25 µM (inactive) | > 25 µM
CC#C[C@]1(O)CC[C@H]2[C@@H]3CCC4=CC(=O)CCC4=C3[C@@H](c3ccc(N(C)C)cc3)C[C@@]21C | 20.9 µM | > 25 µM
NC(=O)c1ccc(N2CCCCC2)c(N2C(=O)C3CC=CCC3C2=O)c1 (configuration not stated) | > 25 µM (inactive) | > 25 µM
Cc1ccc(CNCC(O)(c2ccccc2)c2ccc(F)cc2)cc1 (configuration not stated) | > 25 µM (inactive) | > 25 µM
COc1ccc(OCC(O)CNCc2ccco2)cc1 (configuration not stated) | > 25 µM (inactive) | > 25 µM
O=C(c1ccc(Cl)c(Cl)c1)c1cnc(Nc2ccccc2)s1 | > 25 µM (inactive) | > 25 µM
Cc1ccc(CNC(=O)CCNC(=O)c2ccco2)cc1 | > 25 µM (inactive) | > 25 µM
